In patent publication US20120065228A1, “COMPOSITIONS AND METHODS FOR TREATING, CONTROLLING, REDUCING, OR AMELIORATING OCULAR INFLAMMATORY WITH LOWER RISK OF INCREASED INTRAOCULAR PRESSURE” (priority 2007, published 2012):

How the values were obtained:
rabbit eyes = experiment: Ophthalmic observations (slit lamp, McDonald Shadduck) in the rabbit IOP study; type: in vivo, New Zealand White rabbits; set-up: key to Cornea Score: 1: Some loss of transparency. Only the epithelium and/or the anterior half of the stoma are involved. The underlying structures are clearly visible although some cloudiness may be readily apparent; key to Conjunctival congestion Score: A flushed, reddish color predominantly confined to the palpebral conjunctiva with some perilimbal injection but primarily confined to the lower and upper parts of the eye from the 4:00 to 7:00 and 11:00 to 1:00 positions; settings: for Conjunctival congestion Score: individual rabbit; for Ophthalmic Observation (Slit-Lamp): individual rabbits
Experimental: (§1) On Days 1-31, animals received daily topical doses of the appropriate test article into the right eye. Animals were dosed four times per day, with doses administered 2 hours apart. Doses were administered using a calibrated 50-μL pipette. The eyelids were held close for 10 seconds immediately following dosing. The time of each dose administration was recorded.
Ophthalmic examinations (slit lamp) were performed prior to the first dosing on Days 5, 12, 22, 26, and 33. Ocular findings were scored according to the McDonald Shadduck system and recorded using a standardized data collection sheet.

[1] = tested on: intraocular pressure (IOP) in New Zealand White rabbits; experiment: Intraocular pressure in New Zealand White rabbits, topical dosing four times daily; type: in vivo; settings: for Intraocular Pressure, MEAN: A.M. readings
Experimental: as §1
Intraocular pressure (“IOP”) was determined for both eyes of each animal on Days 3, 5, 10, 12, 16, 18, 22, 24, 26, 30, and 32. LOP was evaluated with a Medtronic Solan, Model 30 classic pneumatonometer. Proparacaine hydrochloride 0.5% (1 drop) was delivered to each eye prior to IOP measurement. IOP was measured on Monday, Wednesday, and Friday of each week. A two-point diurnal curve was established: IOP was recorded at 8 a.m. and 12 p.m. on Day 3, and at 8 a.m. and 2 p.m. on later days, with a ±1 hour range for each of these times. The time of the measurements was recorded.
Descriptive statistics were prepared for IOP data of each treatment group (left and right eyes separately) at each measurement interval. The statistics included the number of observations (“N”), mean, standard deviation (“STD”), and standard error (“SEM”). Statistical analyses were conducted on IOP results using Statistical Analysis Systems (SAS Institute, Inc., Cary, N.C., V8.0). Parameters were evaluated using analysis of variance/GLM Procedure followed by Tukey's Standardized Range Test (Tukey, 1985) for post hoc comparisons of group means. The level of significance was set at a probability of p<0.05 for all statistical procedures. Group IOP means were compared at each interval, with left and right eyes compared separately.
IOP data for the following six animals were excluded from group statistics: Group A, Nos. 3081, 3037, 3068, and 3011; Group C, No. 3034; and Group E, No. 3084.

[2] = 1 mg/g BOL-303242-X 4 x daily, treated right eye, Day 22
[3] = 5 mg/g BOL-303242-X 4 x daily, treated right eye, Day 5
[4] = 5 mg/g BOL-303242-X 4 x daily, treated right eye, Day 22
[5] = 5 mg/g BOL-303242-X 4 x daily, treated right eye, Day 22, 26
[6] = 5 mg/g BOL-303242-X 4 x daily, treated right eye, Day 26
[7] = 10 mg/g BOL-303242-X 4 x daily, treated right eye, Day 5, 12
[8] = 10 mg/g BOL-303242-X 4 x daily, treated right eye, Day 12
[9] = 10 mg/g BOL-303242-X 4 x daily, treated right eye, Day 26

SMILES: Cc1ccc2c(NCC(O)(CC(C)(C)c3cc(F)cc4c3OCC4)C(F)(F)F)cccc2n1 (centres unmarked) [BOL-303242-X]
- Conjunctival congestion Score (rabbit eyes; [2]): 1
- Ophthalmic Observation (Slit-Lamp) (rabbit eyes; [2]): Conjunctival congestion
- Slit-lamp ophthalmic finding (rabbit eyes; 1 mg/g suspension, dosed right eye (Group D, No. 3043)): subconjunctival hemorrhage
- Conjunctival congestion Score (rabbit eyes; [3]): 1
- Conjunctival congestion Score (rabbit eyes; [4]): 1
- Conjunctival congestion Score (rabbit eyes; [5]): 1
- Conjunctival congestion Score (rabbit eyes; [6]): 1
- Ophthalmic Observation (Slit-Lamp) (rabbit eyes; [3]): Conjunctival congestion
- Ophthalmic Observation (Slit-Lamp) (rabbit eyes; [4]): Conjunctival congestion
- Ophthalmic Observation (Slit-Lamp) (rabbit eyes; [5]): Conjunctival congestion
- Ophthalmic Observation (Slit-Lamp) (rabbit eyes; [6]): Conjunctival congestion
- Conjunctival congestion Score (rabbit eyes; [7]): 1
- Conjunctival congestion Score (rabbit eyes; [8]): 1
- Conjunctival congestion Score (rabbit eyes; [9]): 1
- Ophthalmic Observation (Slit-Lamp) (rabbit eyes; 10 mg/g BOL-303242-X 4 x daily, treated right eye, Day 5): Surface area of cornea involvement
- Ophthalmic Observation (Slit-Lamp) (rabbit eyes; [7]): Conjunctival Congestion
- Ophthalmic Observation (Slit-Lamp) (rabbit eyes; [8]): Conjunctival Congestion
- Ophthalmic Observation (Slit-Lamp) (rabbit eyes; [9]): Conjunctival Congestion
- Surface area of cornea involvement Score (rabbit eyes; 10 mg/g BOL-303242-X 4 x daily, treated right eye, rabbit 3083, Day 5): 1 (1-25% area of stromal cloudiness.)
- Cornea Score (rabbit eyes; 10 mg/g BOL-303242-X 4 x daily, treated right eye, rabbit 3083, Day 5, pinpoint corneal scar): 1^(2)
- Slit-lamp ophthalmic finding (rabbit eyes; 10 mg/g suspension, dosed right eye (Group B, No. 3083)): pinpoint corneal scar
- Ocular finding associated with unilateral topical instillation (rabbit eyes; four times daily up to 31 days, BOL-303242-X 0.05, 0.25 or 0.5 mg/dose, dexamethasone 0.05 mg/dose): sporadic mild conjunctival congestion
- Intraocular Pressure, MEAN ([1]; 1 mg/g BOL-303242-X (Group D), untreated left eyes, Day 3): 23.5 mmHg
- Intraocular Pressure, MEAN ([1]; 1 mg/g BOL-303242-X (Group D), untreated left eyes, Day 5): 24.4 mmHg
- Intraocular Pressure, MEAN ([1]; 1 mg/g BOL-303242-X (Group D), untreated left eyes, Day 10): 24.5 mmHg
- Intraocular Pressure, MEAN ([1]; 1 mg/g BOL-303242-X (Group D), untreated left eyes, Day 12): 22.2 mmHg
- Intraocular Pressure, MEAN ([1]; 1 mg/g BOL-303242-X (Group D), untreated left eyes, Day 16): 21.6 mmHg
- Intraocular Pressure, MEAN ([1]; 1 mg/g BOL-303242-X (Group D), untreated left eyes, Day 18): 23.3 mmHg
- Intraocular Pressure, MEAN ([1]; 1 mg/g BOL-303242-X (Group D), untreated left eyes, Day 22): 22.4 mmHg
- Intraocular Pressure, MEAN ([1]; 1 mg/g BOL-303242-X (Group D), untreated left eyes, Day 24): 22.4 mmHg
- Intraocular Pressure, MEAN ([1]; 1 mg/g BOL-303242-X (Group D), untreated left eyes, Day 26): 22.9 mmHg
- Intraocular Pressure, MEAN ([1]; 1 mg/g BOL-303242-X (Group D), untreated left eyes, Day 30): 23.4 mmHg
- Intraocular Pressure, MEAN ([1]; 1 mg/g BOL-303242-X (Group D), untreated left eyes, Day 32): 24.1 mmHg
- Intraocular Pressure, MEAN ([1]; 1 mg/g BOL-303242-X (Group D), untreated left eyes, Pre-Study): 23.9 mmHg
- Intraocular Pressure, MEAN ([1]; 5 mg/g BOL-303242-X (Group C), untreated left eyes, Day 3): 23.8 mmHg
- Intraocular Pressure, MEAN ([1]; 5 mg/g BOL-303242-X (Group C), untreated left eyes, Day 5): 24.4 mmHg
- Intraocular Pressure, MEAN ([1]; 5 mg/g BOL-303242-X (Group C), untreated left eyes, Day 10): 24.6 mmHg
- Intraocular Pressure, MEAN ([1]; 5 mg/g BOL-303242-X (Group C), untreated left eyes, Day 12): 23.8 mmHg
- Intraocular Pressure, MEAN ([1]; 5 mg/g BOL-303242-X (Group C), untreated left eyes, Day 16): 23.4 mmHg
- Intraocular Pressure, MEAN ([1]; 5 mg/g BOL-303242-X (Group C), untreated left eyes, Day 18): 21.9 mmHg
- Intraocular Pressure, MEAN ([1]; 5 mg/g BOL-303242-X (Group C), untreated left eyes, Day 22): 21.6 mmHg
- Intraocular Pressure, MEAN ([1]; 5 mg/g BOL-303242-X (Group C), untreated left eyes, Day 24): 22.1 mmHg
- Intraocular Pressure, MEAN ([1]; 5 mg/g BOL-303242-X (Group C), untreated left eyes, Day 26): 21.7 mmHg
- Intraocular Pressure, MEAN ([1]; 5 mg/g BOL-303242-X (Group C), untreated left eyes, Day 30): 22.6 mmHg
- Intraocular Pressure, MEAN ([1]; 5 mg/g BOL-303242-X (Group C), untreated left eyes, Day 32): 23.1 mmHg
- Intraocular Pressure, MEAN ([1]; 5 mg/g BOL-303242-X (Group C), untreated left eyes, Pre-Study): 24.2 mmHg
- Intraocular Pressure, MEAN ([1]; 10 mg/g BOL-303242-X (Group B), untreated left eyes, Day 3): 23.3 mmHg
- Intraocular Pressure, MEAN ([1]; 10 mg/g BOL-303242-X (Group B), untreated left eyes, Day 5): 23.4 mmHg
- Intraocular Pressure, MEAN ([1]; 10 mg/g BOL-303242-X (Group B), untreated left eyes, Day 10): 24.0 mmHg
- Intraocular Pressure, MEAN ([1]; 10 mg/g BOL-303242-X (Group B), untreated left eyes, Day 12): 23.8 mmHg
- Intraocular Pressure, MEAN ([1]; 10 mg/g BOL-303242-X (Group B), untreated left eyes, Day 16): 22.9 mmHg
- Intraocular Pressure, MEAN ([1]; 10 mg/g BOL-303242-X (Group B), untreated left eyes, Day 18): 21.2 mmHg
- Intraocular Pressure, MEAN ([1]; 10 mg/g BOL-303242-X (Group B), untreated left eyes, Day 22): 21.8 mmHg
- Intraocular Pressure, MEAN ([1]; 10 mg/g BOL-303242-X (Group B), untreated left eyes, Day 24): 20.2 mmHg
- Intraocular Pressure, MEAN ([1]; 10 mg/g BOL-303242-X (Group B), untreated left eyes, Day 26): 21.7 mmHg
- Intraocular Pressure, MEAN ([1]; 10 mg/g BOL-303242-X (Group B), untreated left eyes, Day 30): 22.7 mmHg
- Intraocular Pressure, MEAN ([1]; 10 mg/g BOL-303242-X (Group B), untreated left eyes, Day 32): 22.9 mmHg
- Intraocular Pressure, MEAN ([1]; 10 mg/g BOL-303242-X (Group B), untreated left eyes, Pre-Study): 23.8 mmHg
- Differences in mean IOP versus the BSS group ([1]; BOL-303242-X 1, 5, 10 mg/g suspensions): No statistically significant (p<0.05) differences
- IOP compared to daily dosing with dexamethasone ([1]; BOL-303242-X suspensions 0.05, 0.25 or 0.5 mg/dose, daily dosing up to 31 days): did not increase IOP
- Mean IOP after treatment began ([1]; rabbits, right eye four times daily up to 31 days, dexamethasone 0.1%, BOL-303242-X 1, 5, 10 mg/g, left and right eyes): This increase was not seen
- Intraocular Pressure, MEAN ([1]; treated right eyes, Day 3, 1 mg/g (Group D)): 23.0 mmHg
